Data as given in patent US20190125745A1, “TREATMENT AND DIAGNOSIS OF CANCER” (Rgenix, Inc., priority 2014, published 2019).
Structures can show the parent of a compound that is named as a salt.

Tests used:
[1] = system: SK-Mel-239 vemurafenib-resistant clone cells; details: diet 100 mg/kg
[2] = system: B16F10 parental and DTIC-resistant cells; test: Tumor growth by DTIC-sensitive and DTIC-resistant B16F10 cells; assay type: in vivo, mouse; details: chow 100 mg/kg
Protocol: Dacarbazine-resistant B16F10 mouse melanoma cells were generated by continuously culturing the cells in the presence of DTIC (D2390, Sigma-Aldrich, St. Louis, Mo.). First, the cells were treated with 500 μg/mL DTIC for one week. Following this initial DTIC treatment, the remaining (˜10%) viable cells were allowed to recover for one week, after which 750 μg/mL of DTIC was added to the cell media for 5 days. Subsequent to this high-dose treatment, the cells were allowed to recover in the presence of low-dose DTIC (100 μg/mL) for one week. The cells were then continuously cultured in cell media containing 200 μg/mL DTIC for at least one month prior to grafting the cells into mice. DTIC was added to fresh cancer cell media every 3 days. For tumor growth experiments, 5×10^4 B16F10 parental and DTIC-resistant cells were subcutaneously injected into the lower flank of 7-week-old C57BL/6 mice.

[3] = system: MeWo human melanoma cells; test: Subcutaneous MeWo tumor growth in immunocompromised mice; assay type: in vivo; details: oral
Protocol: (§1) FIG. 4. Therapeutic LXR Activation Inhibits Melanoma Tumor Growth. […] Representative tumor images shown correspond to tumors extracted at the final day (d12). n=10-18 (A), 8-10 (B). (C-E) Primary tumor growth by 1×10^6 MeWo (C), […] SK-Mel-334.2 (D), and 2×10^6 SK-Mel-2 (E) human melanoma cells subcutaneously injected into immunocompromised mice. […] Tumor images shown correspond to last day of measurements. n=6-34 (C), 8 (D), 5 (E). (F) 5×10^4 B16F10 cells were injected subcutaneously into C57BL/6-WT mice. Upon tumor growth to 150 mm^3, mice were fed continuously with a control chow or a chow containing GW3965 (150 mg/kg), and tumor growth was measured daily. n=6-13. […] Tumor volume was calculated as (small diameter)^2×(large diameter)/2. […] Scale bars, 5 mm (A-D), 50 μm (J, K), 25 μm (L).

[4] = system: SK-Mel-334.2 primary human melanoma line; test: Subcutaneous SK-Mel-334.2 tumor growth in immunocompromised mice; assay type: in vivo; details: oral
Protocol: as §1

[5] = molecular target: T1, LXRβ (Homo sapiens, UniProt P55055); test: ligand sensing assay (LiSA), LXRβ; assay type: biochemical; details: hydrochloride
T1 sequence (P55055 1-460): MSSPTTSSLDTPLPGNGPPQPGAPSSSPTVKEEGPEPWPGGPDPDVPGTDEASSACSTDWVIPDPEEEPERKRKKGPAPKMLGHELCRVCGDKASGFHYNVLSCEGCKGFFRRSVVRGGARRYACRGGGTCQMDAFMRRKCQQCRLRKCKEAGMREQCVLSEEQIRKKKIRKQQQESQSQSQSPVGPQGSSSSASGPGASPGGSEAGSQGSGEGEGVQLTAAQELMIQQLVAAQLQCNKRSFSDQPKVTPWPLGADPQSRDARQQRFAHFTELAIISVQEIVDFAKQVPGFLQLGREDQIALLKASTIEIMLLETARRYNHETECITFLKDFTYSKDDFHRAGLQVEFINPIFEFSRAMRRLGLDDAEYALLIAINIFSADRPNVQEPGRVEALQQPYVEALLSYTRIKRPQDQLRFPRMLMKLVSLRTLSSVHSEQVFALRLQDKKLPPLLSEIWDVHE
Text: As used herein, reference to the activity of an LXR agonist at LXRα and LXRβ refer to the activity as measured using the ligand sensing assay (LiSA) described in Spencer et al. Journal of Medicinal Chemistry 2001, 44, 886-897, incorporated herein by reference. […] For example, the methods of the invention can be performed using an LXRβ agonist having activity for LXRβ that is at least 3-fold greater than the activity of the agonist for LXRα, or having activity for LXRβ that is at least 10-fold greater than the activity of the agonist for LXRα, or having activity for LXRβ that is at least 100-fold greater than the activity of said agonist for LXRα, or having activity for LXRβ that is at least within 3-fold of the activity of the agonist for LXRα. The term “greater activity” in the LiSA assay refers to a lower EC50.

SMILES: O=C(O)Cc1cccc(OCCCN(Cc2cccc(C(F)(F)F)c2Cl)CC(c2ccccc2)c2ccccc2)c1 [GW3965 108, 3-[3-[N-(2-Chloro-3-trifluoromethylbenzyl)-(2,2-diphenylethyl)amino]propyloxy] phenylacetic acid hydrochloride]
- suppression of growth of the SK-Mel-239 vemurafenib-resistant line [1]: 72%
- suppression of tumor growth by the DTIC-resistant B16F10 melanoma clone [2]: more than 70%
- inhibition of tumor growth, MeWo [3]: 70%
- inhibition of tumor growth, SK-Mel-334.2 [4]: 73%
- greater activity for LXRβ compared to LXRα [5]: 6 fold
- greater activity for LXRβ compared to LXRα ([5]; row): approximately 6 fold
